In PubChem BioAssay (NCI):
Where “and” joins values, the source holds several entries; their conditions need not be identical. Equal values may be shown once.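 The compound was tested at five concentrations on cells cultured in 96-well plates, with a 48-hour exposure period. GI50 marks 50% less growth. The concentration for full growth arrest is given as TGI.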

Tests used:
Assay in all cases: NCI anticancer screen, dose series, 48 h
[1] = system: NCI-H522 lung
[2] = system: SNB-19 CNS
[3] = system: SR leukemia
[4] = system: HCT-15 colon
[5] = system: U251 CNS
[6] = system: T-47D breast
[7] = system: OVCAR-5 ovarian
[8] = system: LOX IMVI melanoma
[9] = system: M14 melanoma
[10] = system: MCF7 breast

| SMILES | TGI [1] | TGI [2] [µM] | TGI [3] [µM] | TGI [4] [µM] | TGI [5] [µM] | TGI [6] [µM] | TGI [7] | TGI [8] [µM] | TGI [9] | TGI [10] [µM] | GI50 [1] [nM] | GI50 [3] [nM] | GI50 [4] [nM] | GI50 [5] [nM] | GI50 [7] [nM] | GI50 [8] [nM] | GI50 [9] [nM] | GI50 [2] [µM] | GI50 [10] [nM] | GI50 [6] [nM] |
| --- | --- | --- | --- | --- | --- | --- | --- | --- | --- | --- | --- | --- | --- | --- | --- | --- | --- | --- | --- | --- |
| CCN(CC(=O)O)C(=O)c1cccnc1 | > 100 µM | > 100 | > 100 | > 100 | > 100 | > 100 | > 100 µM | > 100 | > 100 µM | – | – | – | – | – | – | – | – | – | – | – |
| COc1cc2c(ccc3c4cc(OC)c(OC)cc4c[n+](C)c23)cc1O | 1.86 µM | 32.4 | – | > 75 | 2.94 | – | > 34.5 µM | > 75 | – | > 75 | – | – | – | – | – | – | – | – | – | – |
| CCOC(=O)C(NC(=O)c1ccco1)(Nc1nc2ccc(OCC)cc2s1)C(F)(F)F (stereo unspecified) | > 100 µM | > 100 | 88.5 | > 100 | > 100 | > 100 | > 100 µM | – | > 100 µM | 78.8 | – | – | – | – | – | – | – | – | – | – |
| CCOC(=O)C1=NN(c2ccc(C)cc2)C2=CC(C)=NN(C)C(=S)N21 | 36.5 µM | > 100 | > 100 | > 100 | > 100 | 61.3 | > 100 µM | > 100 | > 100 µM | – | – | – | – | – | – | – | – | – | – | – |
| COc1ccc2c(c1)[nH]c1c(/C=C/c3ccccc3)nccc12 | 29 µM | 38.5 | > 100 | 34.7 | 38.9 | > 100 | 30.5 µM | 63.2 | 35.3 µM | 41.6 | – | – | – | – | – | – | – | – | – | – |
| CCn1c(-c2ccc(N=NNc3ccc(-c4n[nH]c(=S)n4CC)cc3)cc2)n[nH]c1=S | 5.71 µM | 9.53 | > 100 | > 100 | – | 4.35 | – | > 100 | 8.2 µM | 29.2 | – | – | – | – | – | – | – | – | – | – |
| [N-]=[N+]=CC(=O)c1ccccc1C#CCCc1ccccc1 | 30.9 µM | > 100 | > 100 | > 100 | 88.5 | – | > 100 µM | > 100 | > 100 µM | – | – | – | – | – | – | – | – | – | – | – |
| CCCCCCCCC/C=C/C=C/C(=O)NCC(=O)NC1C(O)C(O)C(Nc2ncnc3nc[nH]c23)OC1C(O)CO (stereo unspecified) | 0.0758 µM and 0.277 µM | – | – | – | 0.0217 | – | 0.0182 µM and 0.0671 µM | 0.0396 | 0.143 µM and 1.22 µM | – | 4.53 | 765 | 2050 | 2.14 | 1.37 | 7.35 | 24.8 | – | – | – |
| NC(=O)c1c(NC(=O)c2ccccn2)sc2c1CCC(=O)C2 | 8.65 µM | > 100 | > 100 | > 100 | > 100 | > 100 | > 100 µM | > 100 | > 100 µM | > 100 | 821 | 832 | 2630 | 2140 | 3050 | 3720 | 3880 | 3.45 | 2370 | 2480 |
| Nc1nc(SCCc2ccccc2)nc2nc3c(c(-c4ccccc4)c12)CCCC3 | – | > 100 | – | > 100 | > 100 | > 100 | – | > 100 | > 100 µM | > 100 | – | – | – | – | – | – | – | – | – | – |
| NCCSC(c1ccccc1)c1ccccc1 | 38.4 µM | > 100 | 43 | > 100 | 33.3 | – | 34 µM | 31.2 | 29.9 µM | 38 | – | – | – | – | – | – | – | – | – | – |
| C(=N\NC1=NCCN1)/c1ccc(-c2cn3cc(/C=N/NC4=NCCN4)ccc3n2)cc1 | > 100 µM | > 61.8 | 13.5 | > 100 | > 64.9 | > 100 | > 100 µM | > 52.5 | > 62.6 µM | > 100 | – | – | – | – | – | – | – | – | – | – |
| O=C(C[n+]1ccc2ccccc2c1)c1ccc2ccc3ccccc3c2c1 | 21.8 µM | 18.7 | 2.15 | 18.9 | 14.6 | 19.3 | 19.8 µM | 6.57 | 10.6 µM | 11.3 | – | – | – | – | – | – | – | – | – | – |
| CC(C)(C)c1cc(C2=NNC(c3ccccc3)C2)cc(C(C)(C)C)c1O (stereo unspecified) | 28.4 µM | 36.4 | 27.5 | 31.2 | 28.8 | 26.8 | 40.9 µM | 29.6 | 34.1 µM | 27.7 | – | – | – | – | – | – | – | – | – | – |
| Clc1cc2c(cc1Cl)CC(NCCN1CCCC1)CC2 (stereo unspecified) | 32.4 µM | 46.3 | 38 | 26.5 | 31.1 | 25.5 | 29.6 µM | 27.2 | 25.4 µM | 31 | – | – | – | – | – | – | – | – | – | – |
| Cc1nn(-c2ccccc2)c(C)c1/C=N/N=C1\SCC(=O)N1c1ccccc1 | – | > 100 | > 100 | 63.6 | 69.3 | > 100 | > 100 µM | 48.1 | 60.7 µM | > 100 | – | – | – | – | – | – | – | – | – | – |
| Nc1cccc(/C=C/C(=O)N2CCN(CCOC(c3ccccc3)c3ccccc3)CC2)c1 | 28.7 µM | 32.4 | 30.9 | 31.5 | 29.3 | 33.1 | 34.6 µM | 32.2 | 26 µM | 31.5 | – | – | – | – | – | – | – | – | – | – |
| C[C@H](CCC(=O)O)[C@H]1CC[C@@]2(C)[C@@H]3C(=O)C[C@H]4C(C)(C)[C@@H](O)CC[C@]4(C)[C@H]3C(=O)C[C@]12C | > 100 µM | > 100 | > 100 | > 100 | > 100 | > 100 | > 100 µM | > 100 | > 100 µM | > 100 | – | – | – | – | – | – | – | – | – | – |
| CCC1CN(C(=O)c2ccccc2)C(Cc2c[nH]c3ccccc23)C(=O)C1CC(=O)OC (stereo unspecified) | > 100 µM | – | > 100 | > 100 | > 100 | > 100 | > 100 µM | > 100 | > 100 µM | > 100 | – | – | – | – | – | – | – | – | – | – |
